From US20250136608A1, “COMPOUNDS CONTAINING A GEM-DIFLUORIDE GROUP AND PREPARATION METHOD AND USE THEREOF” (CGENETECH (SUZHOU, CHINA) CO., LTD, priority 2022, published 2025)

Assays:
JAK3 = JAK3 (Homo sapiens, UniProt P52333); assay: JAK3 kinase inhibitory activity test (HTRF); assay type: biochemical; conditions: JAK3 0.1 ng/μL, ATP 3 μM, substrate 1 μM, 3 h
in vivo = conditions: male, C57, mouse, po
[1] = Oral pharmacokinetic test in mice; conditions: male, C57, mouse, in vivo, 10 mg/kg

| SMILES | IC50 (JAK3) [µM] | AUC(0-inf) (in vivo; 10 mg/kg) [ng·h/mL] | AUC(0-t) (in vivo; 10 mg/kg) [ng·h/mL] | Cmax (in vivo; 10 mg/kg) [ng/mL] | MRT inf (in vivo; 10 mg/kg) [min] | MRT last (in vivo; 10 mg/kg) [min] | Tmax (in vivo; 10 mg/kg) [min] | half-life (in vivo; 10 mg/kg) [min] | other results |
| --- | --- | --- | --- | --- | --- | --- | --- | --- | --- |
| N#CC[C@H](CCC(F)(F)F)n1cc(-c2ncnc3[nH]ccc23)cn1 [Compound 6-2] | 0.116 | 4770 | 4760 | 6770 | 36.6 | 36 | 4.8 | 44.4 |  |
| N#CC[C@@H](CCC(F)(F)F)n1cc(-c2ncnc3[nH]ccc23)cn1 [Compound 6-1] | 0.311 | 9240 | 9230 | 6320 | 69 | 68.4 | 15 | 50.4 |  |
| N#CCC(C1CCC(C(F)(F)F)CC1)n1cc(-c2ncnc3[nH]ccc23)cn1 (centres unmarked) [Compound 5] | 0.488 | 2000 | 1980 | 1410 | 78.6 | 73.2 | 15 | 81.6 |  |
| N#CCC1(n2cc(-c3ncnc4[nH]ccc34)cn2)CCC(C(F)(F)F)CC1 (centres unmarked) [Compound 3] | 0.151 |  |  |  |  |  |  |  |  |
| N#CCC(C1CCC(F)(F)CC1)n1cc(-c2ncnc3[nH]ccc23)cn1 (centres unmarked) [Compound 4] | 0.402 |  |  |  |  |  |  |  |  |
| N#CC[C@H](C1CCCC1)n1cc(-c2ncnc3[nH]ccc23)cn1 [Ruxolitinib, reference compound] |  |  |  |  |  |  |  |  | AUC(0-inf) (in vivo; 5 mg/kg): 580 ng·h/mL; AUC(0-t) (in vivo; 5 mg/kg): 578 ng·h/mL; Cmax (in vivo; 5 mg/kg): 893 ng/mL; MRT inf (in vivo; 5 mg/kg): 42.6 min; MRT last (in vivo; 5 mg/kg): 42 min; Tmax (in vivo; 5 mg/kg): 7.8 min; half-life (in vivo; 5 mg/kg): 30 min |
| N#CCC(C1CC(F)(F)C1)n1cc(-c2ncnc3[nH]ccc23)cn1 (centres unmarked) [Compound 7] | 0.479 | 1660 | 1660 | 3190 | 30.6 | 29.4 | 4.8 | 89.4 |  |
| N#CCC1(n2cc(-c3ncnc4[nH]ccc34)cn2)CCC(F)(F)CC1 [Compound 1] |  |  |  |  |  |  |  |  | AUC(0-inf) [1]: 2150 ng·h/mL; AUC(0-t) [1]: 2130 ng·h/mL; Cmax [1]: 1480 ng/mL; MRT inf [1]: 81 min; MRT last [1]: 75 min; Tmax [1]: 19.8 min; half-life [1]: 70.8 min |

Now from value to compound, other results behind:

| IC50 (JAK3) [µM] | AUC(0-inf) (in vivo; 10 mg/kg) [ng·h/mL] | AUC(0-t) (in vivo; 10 mg/kg) [ng·h/mL] | Cmax (in vivo; 10 mg/kg) [ng/mL] | MRT inf (in vivo; 10 mg/kg) [min] | MRT last (in vivo; 10 mg/kg) [min] | Tmax (in vivo; 10 mg/kg) [min] | half-life (in vivo; 10 mg/kg) [min] | SMILES | other results |
| --- | --- | --- | --- | --- | --- | --- | --- | --- | --- |
| 0.419 |  |  |  |  |  |  |  | CC(C)(C(CC#N)n1cc(-c2ncnc3[nH]ccc23)cn1)C(F)(F)F (centres unmarked) [Compound 8] |  |
| 0.401 |  |  |  |  |  |  |  | N#CCC(n1cc(-c2ncnc3[nH]ccc23)cn1)C1(C(F)(F)F)CCC1 (centres unmarked) [Compound 9] |  |
